Test results taken from ChEMBL document CHEMBL1152286, “Pyrrospirones A and B, apoptosis inducers in HL-60 cells, from an endophytic fungus, Neonectria ramulariae Wollenw KS-246” (Bioorg Med Chem Lett, 2008).
pIC50: −log10 of the molar value. Activity calls are given as the source filed them. The rule behind the calls is not given here.

Experiments:
Format in all cases: functional, cell-based
K562 = test: Cytotoxicity against human K562 cells by MTT assay
LNCaP = test: Cytotoxicity against human LNCAP cells by MTT assay
HL-60 [1] = test: Cytotoxicity against human HL60 cells by MTT assay
HL-60 [2] = test: Induction of apoptosis in human HL60 cells assessed as DNA fragmentation at 30 uM after 18 hrs by agarose-gel electrophoresis

SMILES	pIC50 (K562)	pIC50 (LNCaP)	pIC50 (HL-60 [1])	Activity (HL-60 [2])
CC1=C[C@H]2[C@@H]3C(=O)[C@]4(C[C@H]2O)C[C@](O)(Cc2ccc(cc2)O[C@H]2[C@H]3[C@@H]1[C@]1(C)C[C@H](C)C[C@H](C)[C@@H]21)NC4=O [PYRROSPIRONE A]	5.00	4.75	4.83	Active
CC1=C[C@H]2[C@@H]3C(=O)[C@]4(C[C@@H]2O)C[C@](O)(Cc2ccc(cc2)O[C@H]2[C@H]3[C@@H]1[C@]1(C)C[C@H](C)C[C@H](C)[C@@H]21)NC4=O [PYRROSPIRONE B]	5.03	4.69	5.13	Active
C=C[C@@H]1C=C(C)[C@H]2[C@@H]3[C@H](Oc4ccc(cc4)C[C@@]4(O)C=C(C(=O)N4)C(=O)[C@@H]13)[C@@H]1[C@@H](C)C[C@@H](C)C[C@]12C [PYRROSPIRONE C]	6.35	6.32	6.92	
C=C[C@@H]1C=C(C)[C@H]2[C@@H]3[C@H](Oc4ccc(cc4)C[C@@]4(O)C[C@H](C(=O)N4)C(=O)[C@@H]13)[C@@H]1[C@@H](C)C[C@@H](C)C[C@]12C [PYRROSPIRONE D]	5.06	4.93	5.16	
